This note sets out measurements from ChEMBL document CHEMBL3400149, “Discovery of novel spiro 1,3,4-thiadiazolines as potent, orally bioavailable and brain penetrant KSP inhibitors” (Bioorg Med Chem, 2015).

Data set [1] deals with T1, Kinesin-like protein KIF11 (Homo sapiens, UniProt P52732).
T1 sequence (P52732 whole entry): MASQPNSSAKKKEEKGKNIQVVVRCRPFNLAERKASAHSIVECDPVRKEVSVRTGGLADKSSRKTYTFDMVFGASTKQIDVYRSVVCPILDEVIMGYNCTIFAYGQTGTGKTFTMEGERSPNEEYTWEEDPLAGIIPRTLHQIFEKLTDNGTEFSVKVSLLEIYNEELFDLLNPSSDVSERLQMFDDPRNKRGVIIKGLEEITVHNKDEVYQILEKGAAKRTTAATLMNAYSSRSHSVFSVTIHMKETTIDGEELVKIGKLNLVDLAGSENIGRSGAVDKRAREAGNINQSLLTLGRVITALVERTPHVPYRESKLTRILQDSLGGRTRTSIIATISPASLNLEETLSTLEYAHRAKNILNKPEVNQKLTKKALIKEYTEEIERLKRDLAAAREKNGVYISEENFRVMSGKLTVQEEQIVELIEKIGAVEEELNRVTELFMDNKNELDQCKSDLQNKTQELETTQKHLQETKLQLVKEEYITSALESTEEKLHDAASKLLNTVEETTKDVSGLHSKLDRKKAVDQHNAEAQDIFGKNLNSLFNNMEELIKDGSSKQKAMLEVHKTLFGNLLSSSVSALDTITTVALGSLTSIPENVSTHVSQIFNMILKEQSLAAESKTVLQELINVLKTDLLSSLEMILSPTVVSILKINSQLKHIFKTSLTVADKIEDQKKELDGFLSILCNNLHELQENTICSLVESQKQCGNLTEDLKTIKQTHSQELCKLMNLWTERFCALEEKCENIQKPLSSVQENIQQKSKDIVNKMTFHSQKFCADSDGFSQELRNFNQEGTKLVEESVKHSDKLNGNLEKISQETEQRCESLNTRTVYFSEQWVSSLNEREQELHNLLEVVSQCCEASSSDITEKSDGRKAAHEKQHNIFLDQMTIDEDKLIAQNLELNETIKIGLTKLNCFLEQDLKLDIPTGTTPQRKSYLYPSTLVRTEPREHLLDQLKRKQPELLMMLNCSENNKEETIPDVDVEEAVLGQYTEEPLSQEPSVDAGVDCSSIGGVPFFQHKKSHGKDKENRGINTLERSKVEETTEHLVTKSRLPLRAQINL
Nature of the data set: Inhibition of KSP in human HCT116 cells assessed as phos-histone H3 level by immunofluorescent assay. The data set is classed as cell-based, HCT-116.

A short description of data set [2]: Retention time of the compound. The data set is classed as physicochemical.
A short description of data set [3]: AUC in CD1 mouse at 5 mg/kg, iv. Type of data set: ADME, organism-based. Also noted: dose 5 mg/kg, route intravenous. The note with it: plasma.
Data set [4] is described as follows: Clearance in CD1 mouse at 5 mg/kg, iv. Also noted: dose 5 mg/kg, route intravenous. The note with it: in vivo. The data set is classed as ADME, organism-based.
Data set [5] can be described thus: AUC in CD1 mouse at 10 mg/kg, po. The data set is classed as ADME, organism-based. Also noted: dose 10 mg/kg, route oral. As to conditions: plasma.
Data set [6] can be described thus: Cmax in CD1 mouse at 10 mg/kg, po. The data set is classed as ADME, organism-based. Details: dose 10 mg/kg, route oral. The note with it: in vivo.
Data set [7] in a line: Oral bioavailability in CD1 mouse at 10 mg/kg. The data set is classed as ADME, organism-based. As to conditions: in vivo.
Data set [8] in a line: AUC in Sprague-Dawley rat at 1 mg/kg, iv. Type of data set: ADME, organism-based. Also noted: dose 1 mg/kg, route intravenous. As to conditions: plasma.
The nature of data set [9]: AUC in beagle dog at 1 mg/kg, iv. The data set is classed as ADME, organism-based, Canis lupus familiaris. Details: dose 1 mg/kg, route intravenous. The note with it: plasma.
Data set [10] in a line: Clearance in Sprague-Dawley rat at 1 mg/kg, iv. Type of data set: ADME, organism-based. Details: dose 1 mg/kg, route intravenous. As to conditions: in vivo.
The nature of data set [11]: Clearance in beagle dog at 1 mg/kg, iv. The data set is classed as ADME, organism-based, Canis lupus familiaris. Details: dose 1 mg/kg, route intravenous. The note with it: in vivo.
Data set [12] in a line: AUC in beagle dog at 5 mg/kg, po. The data set is classed as ADME, organism-based, Canis lupus familiaris. Details: dose 5 mg/kg, route oral. As to conditions: plasma.
The nature of data set [13]: Cmax in beagle dog at 5 mg/kg, po. Type of data set: ADME, organism-based, Canis lupus familiaris. Details: dose 5 mg/kg, route oral. The note with it: in vivo.
Data set [14] is described as follows: Oral bioavailability in beagle dog at 5 mg/kg. Type of data set: ADME, organism-based, Canis lupus familiaris. As to conditions: in vivo.
Data set [15] is described as follows: AUC in Sprague-Dawley rat at 5 mg/kg, po. Type of data set: ADME, organism-based. Also noted: dose 5 mg/kg, route oral. The note with it: plasma.
A short description of data set [16]: Cmax in Sprague-Dawley rat at 5 mg/kg, po. The note with it: in vivo. Type of data set: ADME, organism-based. Details: dose 5 mg/kg, route oral.
Data set [17] can be described thus: Oral bioavailability in Sprague-Dawley rat at 5 mg/kg. The note with it: in vivo. The data set is classed as ADME, organism-based.

By EC50 is commonly meant the concentration that produces a half-maximal response. With `CCC(=O)N1N=C(c2cc(F)ccc2F)SC12CCOc1ccccc12` (stereo unspecified), the EC50 in data set [1] turned out to be 452 nM.
On the same count and under the same terms, under `CC(=O)N1N=C(c2cc(F)ccc2F)S[C@@]12c1cc(Cl)ccc1OC[C@H]2CCN` stands 17 nM; under `CC(=O)N1CCC2(SC(c3cc(F)ccc3F)=NN2C(C)=O)c2ccccc21` (stereo unspecified), more than 1000 nM.
For `CC(=O)N1N=C(c2cc(F)ccc2F)S[C@]12c1ccccc1OC[C@@H]2CCN`, in data set [1], the EC50 was more than 1000 nM. Besides, the Retention_time in data set [2] is given as 2.33 min.
Turning to `CC(C)C(=O)N1N=C(c2cc(F)ccc2F)SC12CCOc1ccccc12` (stereo unspecified), the EC50 in data set [1] was more than 500 nM.
With `COCC(=O)N1N=C(c2cc(F)ccc2F)SC12CCOc1ccccc12` (stereo unspecified), in data set [1], the EC50 worked out at 665 nM.
On the same count and under the same terms, in the case of `CC(=O)N1N=C(c2cc(F)ccc2F)SC12CCN(C)c1ccccc12` (stereo unspecified) it was more than 1000 nM.
`CC(=O)N1N=C(c2cc(F)ccc2F)SC12CCCOc1ccccc12` (stereo unspecified): the half-maximal effective concentration (EC50) in data set [1] was more than 1000 nM.
Same read-out and setting: in the case of `CC(=O)N1N=C(c2cc(F)ccc2F)SC12c1ccccc1OCC2CCN` (racemic) it was 5 nM.
As usually defined, the AUC is the area under the concentration-time curve, a measure of exposure. A high value points to more exposure. The term clearance denotes a measure of how efficiently the substance is removed, as volume per time. The low end stands for a low capacity for elimination, the high end for a high capacity for elimination. As a reminder, the Cmax is the highest concentration seen after dosing. The term bioavailability denotes dose-corrected exposure relative to a reference, in per cent. Lower therefore signals little systemic uptake. With `CC(=O)N1N=C(c2cc(F)ccc2F)S[C@@]12c1cccc(F)c1OC[C@H]2CCN`, in [1], the EC50 amounted to 5 nM. The AUC in [3] is 1.5 µM·h; in data set [5], 1.3 µM·h. In [4], this compound yielded a clearance of 136 mL/min/kg. Also, the Cmax in data set [6] amounted to 430 nM. The bioavailability in [7] amounted to 46%.
For `CC(=O)N1N=C(c2cc(F)ccc2F)S[C@@]12c1ccccc1OC[C@@H]2CCN`, the EC50 in data set [1] is 11 nM. For the same compound, the Retention_time in data set [2] stood at 5.4 min.
For `CC(=O)N1N=C(c2cc(F)ccc2F)SC12CCNc1ccccc12` (stereo unspecified), the EC50 in [1] came out at 179 nM.
For the compound `CC(C)(C)C(=O)N1N=C(c2cc(F)ccc2F)SC12CCOc1ccccc12` (stereo unspecified), in data set [1], the EC50 is more than 1000 nM.
`CC(=O)N1N=C(c2cc(F)ccc2F)S[C@@]12c1cc(F)cc(F)c1OC[C@H]2CCN`: in data set [1], the EC50 was 5 nM. In addition, the area under the curve (AUC) in data set [3] is 6.5 µM·h; in data set [8] it was 0.8 µM·h; in data set [9], 1.9 µM·h; in data set [12], 1.7 µM·h; in data set [5], 13.4 µM·h; in data set [15] it was 1.7 µM·h. Also, the clearance in data set [4] came to 29 mL/min/kg; in [10], 50 mL/min/kg; in data set [11], 20 mL/min/kg. For the same compound, the Cmax was 200 nM in [13], 1200 nM in data set [6] and 180 nM in data set [16]. Also, the bioavailability was 18% in data set [14], 100% in data set [7] and 44% in [17].
